# Results reported in publication PMC3715451, “Roles for Ordered and Bulk Solvent in Ligand Recognition and Docking in Two Related Cavities” (PLoS ONE, 2013).
# “Also recorded” adds a separate entry of the source. Where two headings read alike, the source gives them in different places.
# Legend:
# [1] = target: T1, Cytochrome c Peroxidase Gateless cavity (P190G/W191G/Δ192-3) (Saccharomyces cerevisiae, UniProt P00431, A260G/D219G/DEL257-258/P257G/T120I/W258G); assay: Binding to the CcP Gateless cavity by titration of the UV-Vis Heme Soret band (or ITC); conditions: for Binding by UV-Vis: neutral docking hits, at up to 1 mM concentration
# T1 construct: made in house
# Procedure: (§1) Our first interest was to investigate the effect of opening the cavity to bulk solvent. Six known ligands of the buried W191G cavity were tested for binding to the Gateless cavity (P190G/W191G/Δ192-3) by UV-Vis titration or by Isothermal Titration Calorimetry (ITC) ( Figure 2 , Table S1 and Figure S1).
# (§2) The compounds were tested for binding by measuring perturbation of the Heme Soret band at 10°C in 100 mM citrate buffer at pH 4.5 or 500 mM MES buffer pH 6.0 [27], [73]. To avoid competition with small cations like potassium, the pH of both buffer conditions was adjusted with Bis-Tris-Propane. Stock solutions were made up in DMSO and diluted into assay buffer to derive KD values in titration curves. KD values were obtained by fitting the difference absorbance of the Heme Soret band to a one-site binding hyperbola in GraphPad Prism (GraphPad Software, Inc.).
# (§3) Experiments were performed as described. Assays were performed at 10°C in 100 mM citrate buffer at pH 4.5. Ligand stocks were prepared in buffer from overnight dialysis of the protein to prevent buffer mismatch.
# [2] = system: Cytochrome c Peroxidase Gateless cavity (P190G/W191G/Δ192-3); assay: as above; conditions: for loss in affinity going from W191G to Gateless: ratio of KD Gateless / W191G; for improvement in affinity in Gateless versus closed W191G: ratio of KD W191G / Gateless
# Procedure: as §1, §2, §3
# [3] = target: Cytochrome c Peroxidase W191G cavity; conditions: closed W191G cavity, cited from earlier work
# CcP Gateless = target: T2, CcP Gateless (Saccharomyces cerevisiae, UniProt P00431, A260G/D219G/DEL257-258/P257G/T120I/W258G); assay: Low C-value Isothermal Titration Calorimetry against CcP Gateless; type: binding; conditions: ITC, 283K; † approximate value from partial ITC curves
# T2 construct: made in house
# Procedure: as §3
# Table S1. ITC data (ΔG, ΔH and ΔS): binding of compounds 1, 2, 3, 4 and 6 to CcP Gateless at 283K.
# [4] = six known W191G ligands, UV-Vis titration or ITC, † = approximate KD by endpoint UV-Vis assay or partial ITC curves, limited by solubility, read-out: KD Gateless
# [5] = known ligands of W191G, reference not given, read-out: KD W191G
# [6] = compounds selected from the SEV docking screen, CcP Gateless cavity, UV-Vis Heme Soret band titration, read-out: KD
# T2 sequence (P00431 other isoform, or with tags, fused parts or gaps T120I/D219G/DEL257-258/A260G): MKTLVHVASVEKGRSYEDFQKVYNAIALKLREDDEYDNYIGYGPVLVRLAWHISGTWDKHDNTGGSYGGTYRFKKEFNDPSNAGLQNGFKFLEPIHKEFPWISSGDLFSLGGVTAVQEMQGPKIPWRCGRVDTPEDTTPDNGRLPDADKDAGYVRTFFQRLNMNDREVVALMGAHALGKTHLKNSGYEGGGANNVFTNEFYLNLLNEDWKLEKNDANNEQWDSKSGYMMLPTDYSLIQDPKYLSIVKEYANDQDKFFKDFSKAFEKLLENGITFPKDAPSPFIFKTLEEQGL
# T1 sequence (P00431 other isoform, or with tags, fused parts or gaps T120I/D219G/DEL257-258/A260G): as above
structure (smiles),measurement,setting,value
O=C(Oc1cccc([N+](=O)[O-])c1)c1ccncc1 [Compound 9],Binding by UV-Vis,[1],none showed measurable affinity; also recorded: No binding
"Nc1ccnc(N)n1 [Compound 2, 2,4-diaminopyrimidine]",loss in affinity going from W191G to Gateless,[2],8 fold
same,Kd,[1]; [4],389 µM
same,Kd,[3]; [5],50 µM
same,TΔS,CcP Gateless,-1.14 kcal/mol
same,ΔG,CcP Gateless,-4.42 kcal/mol
same,ΔH,CcP Gateless,-5.56 kcal/mol
COc1ccc(Nc2cc(C)nc(N)n2)cc1 [Compound 16],Kd,[1]; [6],17 µM
Nc1c(Br)cnc2ccccc12 [Compound 11],Kd,[1]; [6],19 µM
"Nc1cccc2nccn12 [Compound 14, imidazo[1,2-a]pyridin-5-amine]",Kd,[1]; [6],14 µM
"CNc1nc2ccccc2[nH]1 [Compound 22, N-methyl-1H-1,3-benzodiazol-2-amine]",Kd,[1]; [6],288 µM
Nc1ncc(C=O)c(N)n1 [Compound 23],KD,"[1]; compounds selected from the SEV docking screen, CcP Gateless cavity, UV-Vis Heme Soret band titration",Non Binder
"Cc1cnc(N)s1 [Compound 1, 2-amino-5-methylthiazole]",loss in affinity going from W191G to Gateless,[2],16 fold
same,Kd,[1]; [4],95 µM
same,Kd,[3]; [5],6 µM
same,TΔS,CcP Gateless,0.21 kcal/mol
same,ΔG,CcP Gateless,-5.21 kcal/mol
same,ΔH,CcP Gateless,-5.00 kcal/mol
C[C@@H](O)CNc1ncnc2ccccc12 [Compound 19],Kd,[1]; [6],37 µM
Cc1cn2cccc(O)c2n1 [Compound 21],Kd,[1]; [6],16 µM
"Oc1cccc(F)c1O [Compound 6, 3-fluorocatechol]",improvement in affinity in Gateless versus closed W191G,[2],2 fold
same,Kd,"[1]; open Gateless cavity, read-out: affinity in Gateless",3100 µM
same,Kd,[1]; [4],~3100 µM
same,Kd,"[3]; no reference given, read-out: affinity in W191G",7700 µM
same,ΔG,CcP Gateless,~-3.2† kcal/mol
same,ΔH,CcP Gateless,~-1.0† kcal/mol
"C[n+]1cccc(N)c1 [Compound 4, 3-amino-1-methylpyridinium]",loss in affinity going from W191G to Gateless,[2],6 fold
same,Kd,[1]; [4],~3000 µM
same,Kd,[3]; [5],500 µM
same,TΔS,CcP Gateless,~-3.6† kcal/mol
same,ΔG,CcP Gateless,~-3.6† kcal/mol
same,ΔH,CcP Gateless,~-7.2† kcal/mol
Cc1cc(N)n(-c2ccccc2[N+](=O)[O-])n1 [Compound 18],Kd,[1]; [6],823 µM
"Nc1ccc2nccn2c1 [Compound 20, Imidazo[1,2-a]pyridin-6-amine]",Kd,[1]; [6],290 µM
O=C(Oc1ccccc1)c1ccc2n[nH]nc2c1 [Compound 8],Binding by UV-Vis,[1],none showed measurable affinity; also recorded: No binding
"Nc1cccc(N)n1 [Compound 3, 2,6-diaminopyridine]",improvement in affinity in Gateless versus closed W191G,[2],about 1.5 fold
same,Kd,[1]; [4],38 µM
same,Kd,[3]; [5],60 µM
same,TΔS,CcP Gateless,-3.31 kcal/mol
same,ΔG,CcP Gateless,-5.73 kcal/mol
same,ΔH,CcP Gateless,-9.04 kcal/mol
"O=Cc1cnc2cc[nH]c2c1 [Compound 24, 1H-Pyrrolo[3,2-b] pyridine-6-carbaldehyde]",Kd,[1]; [6],> 2000 µM
Cn1ccnc1Sc1ccccc1N [Compound 15],Kd,[1]; [6],203 µM
"OCc1cnc2cc[nH]c2c1 [Compound 17, (1H-Pyrrolo[3,2-b]pyridin-6-yl)methanol]",Kd,[1]; [6],982 µM
O=C(/C=C/c1ccc(F)cc1)c1ccco1 [Compound 7],Binding by UV-Vis,[1],none showed measurable affinity; also recorded: No binding
"Nc1c2c(nc3sccc13)CCCC2 [Compound 10, 5,6,7,8-tetrahydrothieno[2,3-b]quinolin-4-amine]",Kd,[1]; [6],64 µM
"Oc1ccccc1 [Compound 5, Phenol]",change of affinity between the two cavities,[2]; W191G versus Gateless,almost unchanged
same,Kd,[3]; [5],4100 µM
Nc1c([N+](=O)[O-])cnc2ccccc12 [Compound 13],Kd,[1]; [6],8 µM
